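Briefly, cells in 96-well plates were exposed to five compound concentrations for 48 h, and endpoints were estimated by linear interpolation. TGI is the concentration that stops growth completely.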

Common to all, as to test: DTP human tumour cell line panel, 48 h
In assay [1] the test system is ACHN renal.
Assay [2] relates to SN12C renal.
For assay [3], the system named is KM12 colon.
The subject of assay [4] is NCI/ADR-RES ovarian.
Assay [5] concerns HL-60(TB) leukemia.
In assay [6] the test system is SNB-75 CNS.
Assay [7] has as its system BT-549 breast.
In assay [8] the test system is OVCAR-5 ovarian.
Assay [9] deals with A549 NSCLC.
Assay [10] concerns NCI-H226 lung.
The subject of assay [11] is MCF7 breast.
Assay [12] has as its system MDA-MB-231 breast.
The subject of assay [13] is UACC-257 melanoma.
For assay [14], the system named is A498 renal.
Assay [15] has as its system NCI-H23 lung.
For assay [16], the system named is HS 578T breast.

For the molecule `C=C1CCC2CC1[C@@H](C(=O)c1c[nH]c3ccccc13)NC2(C)C` (stereo partly specified), the TGI in assay [1], in assay [2], in assay [3], in assay [4], in assay [5] and in [6] was greater than 37.5 µM in each case. The TGI in assay [7], in assay [8], in assay [9], in assay [10], in assay [11] and in assay [12] was greater than 37.5 µM each time. For the same molecule, the total growth inhibition concentration (TGI) in assay [13], in assay [14], in [15] and in assay [16] was greater than 37.5 µM each time.

With `c1ccc(-c2cs[s+]c2)cc1`, the TGI in assay [1], in [2], in assay [3], in assay [4], in assay [5] and in [6] was greater than 100 µM each time. Further, the TGI in assay [7], in assay [8], in assay [9], in assay [10], in assay [11] and in assay [12] was greater than 100 µM throughout. Further, the TGI in assay [13], in assay [14], in assay [15] and in assay [16] was greater than 100 µM throughout.

`C(=C\c1nccs1)/c1cccc(/C=C/c2nccs2)n1`: the total growth inhibition concentration (TGI) in [1], in assay [2], in [3], in assay [4], in assay [5] and in assay [6] was greater than 50 µM in each case. Besides, the TGI in assay [7], in assay [8], in [9], in assay [10], in assay [11] and in assay [12] was greater than 50 µM throughout. In addition, the TGI in assay [13], in [14], in assay [15] and in [16] was greater than 50 µM in each case.

For the molecule `COc1ccc2oc(=O)cc(C)c2c1`, the TGI in assay [1], in assay [2], in assay [3], in assay [4], in assay [5] and in assay [6] was greater than 100 µM each time. In addition, the TGI in assay [7], in assay [8], in assay [9], in assay [10], in assay [11] and in assay [12] was greater than 100 µM throughout. Also, the concentration for total growth inhibition (TGI) in [13], in assay [14], in assay [15] and in assay [16] was greater than 100 µM throughout.

Take `C=CCOC1=C(OCC=C)C(C2COC(C)(C)O2)OC1=O` (stereo unspecified): the TGI in assay [1], in assay [2], in assay [3], in [4], in [5] and in assay [6] was greater than 100 µM throughout. For the same molecule, the concentration for total growth inhibition (TGI) in assay [7], in [8], in [9], in assay [10], in [11] and in assay [12] was greater than 100 µM in each case. The TGI in [13], in assay [14], in assay [15] and in assay [16] was greater than 100 µM each time.

Take `C=CCOc1ccc(/C(N=Nc2ccccc2)=N/NC(=O)c2ccccc2)cc1OC`: the total growth inhibition concentration (TGI) in assay [1], in assay [2], in assay [3], in [4], in assay [5] and in [6] was greater than 100 µM in each case. Also, the TGI in assay [7], in [8], in assay [9], in assay [10], in assay [11] and in [12] was greater than 100 µM throughout. In addition, the concentration for total growth inhibition (TGI) in assay [13], in assay [14], in assay [15] and in [16] was greater than 100 µM in each case.

For orientation: TGI means the concentration at which net growth stops. A low value points to greater sensitivity of the cells.
